Assay results taken from US7625696B2, “Screening method” (Takeda Pharmaceutical Company Limited, priority 2003, dated 2009).

Experiments:
[1] = test system: nuclear receptor PAR; details: J. Biol. Chem. 271 (37), 22441-22446, 1996; cited from earlier work
[2] = target: T1, human GPR30 (Homo sapiens, UniProt Q99527, P21A/Q20H); assay: Intracellular calcium ion level-increasing activity using FLIPR, human GPR30 cells; assay type: cell-based; details: human GPR30-expressed CHO cells, Fluo 3-AM, up to 100 μM (FIGS. 1-3, 7)
T1 construct: expressed in transfected cells; host or cells: CHO/dhfr- cells (ATCC), clone #19
Excerpt: (§1) The cDNA (SEQ ID NO: 5) for human GPR30 was cloned by known PCR techniques to incorporate the cDNA into pAKKO1.11H expression vector (Biochemica et Biophysica Acta, 1219 (1994) 251-259). The structure of plasmid was verified by restriction enzyme digestion and sequencing analysis and a correctly constructed plasmid was used as CHO cell expression plasmid pAK-hGPR30.
This plasmid pAK-hGPR30 was transfected to CHO/dhfr− cells (American Type Culture Collection) by electroporation. First, plasmid pAK-hGPR30 was digested with restriction enzyme Ahd I. A cuvette for electroporation received 5×10^6 CHO/dhfr− cells suspended in 500 μl of PBS and 5 μg of plasmid DNA dissolved in 10 μl of TE buffer. The mixture was settled on ice for 5 minutes and subjected to electroporation under conditions of […] and 960 μF. After settling on ice for 5 minutes, the total volume of CHO/dhfr− cells were plated in a T75 flask and incubated in nucleic acid-containing MEMalpha medium (Invitrogen, Inc.) supplemented with 10% fetal bovine serum (BIO WHITTAKER, Inc.) at 37° C. in 5% carbon dioxide for one day. The cells were dispersed by trypsin treatment, recovered from the flask and plated in a 96-well plate by 200 counts or 500 counts per well. Incubation was initiated in nucleic acid-free MEMalpha medium (Invitrogen, Inc.) supplemented with 10% dialyzed fetal bovine serum (JRH BIOSCIENCES, Inc.) and 50 μg/ml gentamicin at 37° C. in 5% carbon dioxide. The plasmid-transfected transformants of CHO cells grew in the medium but the non-transfected cells gradually died. On Days 8 to 10 after the incubation, one colony that kept growing in one well of the 96-well plate were isolated and approximately 48 colonies of the transformants of CHO cells were selected. From each cell selected, RNA was recovered using a commercially available kit for RNA isolation. Subsequently, transformant CHO cell #19 clone highly expressing human GPR30 was selected by known TaqMan RT-PCR (hereinafter briefly referred to as human GPR30 cell). […]

[3] = test system: various cancer cells; details: J. Biol. Chem. 271 (37), 22441-22446, 1996; cited from earlier work
[4] = target: T2, rat GPR30 (Rattus norvegicus, UniProt O08878, S320N); assay: Intracellular calcium ion level-increasing activity using FLIPR, rat GPR30 cells; assay type: cell-based; details: rat GPR30-expressed CHO cells, Fluo 3-AM, up to 100 μM (FIGS. 4-6, 8)
T2 construct: expressed in transfected cells; host or cells: CHO/dhfr- cells (ATCC), clone #6
T2 sequence (O08878 1-375 S320N): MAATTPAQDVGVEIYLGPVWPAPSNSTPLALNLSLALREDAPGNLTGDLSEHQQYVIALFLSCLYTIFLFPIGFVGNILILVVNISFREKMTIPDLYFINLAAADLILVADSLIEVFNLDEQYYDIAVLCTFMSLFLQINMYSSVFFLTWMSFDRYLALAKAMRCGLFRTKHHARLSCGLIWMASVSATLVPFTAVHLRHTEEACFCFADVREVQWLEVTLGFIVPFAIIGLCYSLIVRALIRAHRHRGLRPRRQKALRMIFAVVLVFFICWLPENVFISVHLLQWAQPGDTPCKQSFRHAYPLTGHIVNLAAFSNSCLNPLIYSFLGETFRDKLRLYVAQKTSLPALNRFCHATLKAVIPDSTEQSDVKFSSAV
Excerpt: as §1, with “6)” for “5)”, “rat” for “human”, “pAK-rGPR30.” for “pAK-hGPR30.”
In accordance with the procedures described in REFERENCE EXAMPLE 1, this plasmid pAK-rGPR30 was transfected to CHO/dhfr− cells (American Type Culture Collection) by electroporation and transformant CHO cell #6 clone highly expressing rat GPR30 was selected was selected (hereinafter briefly referred to as rat GPR30 cell).
(§2) The human GPR30 and rat GPR30 cells obtained in REFERENCE EXAMPLES above were suspended in medium (10% dFBS-DMEM) in 15×10^4 cells/ml, respectively. A 200 μl aliquot of the suspension was plated in each well of a 96-well plate (Black plate clear bottom, Coster, Inc.) for FLIPR, using an 8 channel pipette (3.0×10^4 cells/200 μl/well), and cultured at 37° C. overnight in a 5% CO2 incubator, which was provided for use (hereinafter referred to as the cell plate). Then, 20 ml of H/HBSS (9.8 g of Nissui HANKS 2 (Nissui Seiyaku Co., Ltd.), 0.35 g of sodium hydrogencarbonate, 4.77 g of HEPES; after adjusting the pH to 7.4 with 6 M sodium hydroxide solution, sterilization through a filter followed), 200 μl of 250 mM Probenecid and 200 μl of fetal bovine serum (FBS) were mixed. […]
(§3) All trans-retinol, all trans-retinal or 4-HPR (4-hydroxyphenylretinamide) was added to and diluted with 150 μl of H/HBSS containing 2.5 mM Probenecid and 0.1% CHAPS or H/HBSS containing 2.5 mM Probenecid, 0.1% CHAPS and 0.2% BSA; the dilution was transferred to a 96-well plate (V-Bottom Plate, Coster, Inc.) for FLIPR (hereinafter, the sample plate). […] Changes in fluorescence intensity were measured with passage of time to determine the intracellular calcium ion level-increasing activities.

[5] = test system: GPR30; assay: Intracellular calcium increase in GPR30-expressed CHO cells (summary statement); assay type: cell-based; details: stimulation with the compound
Protocol: as §2, §3

T1 sequence (Q99527 whole entry Q20H/P21A): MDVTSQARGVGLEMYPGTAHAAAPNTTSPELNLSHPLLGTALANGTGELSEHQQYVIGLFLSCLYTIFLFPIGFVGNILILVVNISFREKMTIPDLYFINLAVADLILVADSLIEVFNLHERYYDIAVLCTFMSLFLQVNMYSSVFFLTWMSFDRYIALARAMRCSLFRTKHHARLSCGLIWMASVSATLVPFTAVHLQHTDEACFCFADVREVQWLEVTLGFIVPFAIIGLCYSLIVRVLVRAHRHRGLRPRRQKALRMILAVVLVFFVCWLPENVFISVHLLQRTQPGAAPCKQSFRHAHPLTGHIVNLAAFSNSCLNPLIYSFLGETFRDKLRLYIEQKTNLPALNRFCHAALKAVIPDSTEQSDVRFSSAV

CC1=C(/C=C/C(C)=C/C=C/C(C)=C/C(=O)Nc2ccc(O)cc2)C(C)(C)CCC1 [4-HPR, 4-hydroxyphenylretinamide]
agonist for nuclear receptor [1]: is an agonist for nuclear receptor PAR | increase in the intracellular calcium ion concentration (change in fluorescence intensity) [2]: induced an increase in the intracellular calcium ion concentration in a manner dependent on the concentration | apoptosis of various cancer cells [3]: induces apoptosis of various cancer cells | increase in the intracellular calcium ion concentration (change in fluorescence intensity) [4]: induced an increase in the intracellular calcium ion concentration in a manner dependent on the concentration | intracellular calcium in the GPR30-expressed CHO cells [5]: specifically increased

CC1=C(/C=C/C(C)=C/C=C/C(C)=C/C=O)C(C)(C)CCC1 [all trans-retinal]
increase in the intracellular calcium ion concentration (change in fluorescence intensity) [2]: induced an increase in the intracellular calcium ion concentration in a manner dependent on the concentration | increase in the intracellular calcium ion concentration (change in fluorescence intensity) [4]: induced an increase in the intracellular calcium ion concentration in a manner dependent on the concentration

CC1=C(/C=C/C(C)=C/C=C/C(C)=C/CO)C(C)(C)CCC1 [all trans-retinol]
increase in the intracellular calcium ion concentration (change in fluorescence intensity) [2]: induced an increase in the intracellular calcium ion concentration in a manner dependent on the concentration | increase in the intracellular calcium ion concentration (change in fluorescence intensity) [4]: induced an increase in the intracellular calcium ion concentration in a manner dependent on the concentration | intracellular calcium in the GPR30-expressed CHO cells [5]: specifically increased
